Assay results from ChEMBL document CHEMBL1129392, “Design, synthesis, and evolution of a novel, selective, and orally bioavailable class of thrombin inhibitors: P1-argininal derivatives incorporating P3-P4 lactam sulfonamide moieties” (J Med Chem, 1996).

Assays:
Coagulation factor X [1] = biological target: T1, Coagulation factor X (Homo sapiens, UniProt P00742)
Description: In vitro for inhibition of Coagulation factor X

Serine protease 1 [2] = biological target: T2, Serine protease 1 (Homo sapiens, UniProt P07477); test: In vitro for inhibition of serine protease Trypsin.
Prothrombin [3] = biological target: T3, Prothrombin (Homo sapiens, UniProt P00734); test: In vitro for inhibition of serine protease thrombin(FIIa).
Coagulation factor X [4] = biological target: T1, Coagulation factor X; test: compound was tested in vitro for inhibition of Coagulation factor X; inactive
Trypsin II = biological target: T4, Trypsin II (Bos taurus, UniProt Q29463); test: compound was tested in vitro for inhibition of serine protease Trypsin.
T4 sequence (Q29463 whole entry): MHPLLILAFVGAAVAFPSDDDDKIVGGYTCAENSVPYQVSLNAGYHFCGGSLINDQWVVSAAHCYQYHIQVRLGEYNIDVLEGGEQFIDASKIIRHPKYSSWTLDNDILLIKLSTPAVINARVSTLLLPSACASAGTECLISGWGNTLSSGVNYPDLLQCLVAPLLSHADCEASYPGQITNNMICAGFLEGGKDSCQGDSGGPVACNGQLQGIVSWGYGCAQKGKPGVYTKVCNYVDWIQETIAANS

Prothrombin [5] = biological target: T3, Prothrombin; test: compound was tested in vitro for inhibition of serine protease thrombin(FIIa).
Coagulation factor X [6] = biological target: T1, Coagulation factor X; test: compound was tested in vitro for inhibition of Coagulation factor X
Prothrombin [7] = biological target: T3, Prothrombin; test: compound was tested in vitro for inhibition of serine protease thrombin (FIIa); inactive
Serine protease 1 [8] = biological target: T2, Serine protease 1; test: compound was tested in vitro for inhibition of serine protease Trypsin; inactive

T2 sequence (P07477 whole entry): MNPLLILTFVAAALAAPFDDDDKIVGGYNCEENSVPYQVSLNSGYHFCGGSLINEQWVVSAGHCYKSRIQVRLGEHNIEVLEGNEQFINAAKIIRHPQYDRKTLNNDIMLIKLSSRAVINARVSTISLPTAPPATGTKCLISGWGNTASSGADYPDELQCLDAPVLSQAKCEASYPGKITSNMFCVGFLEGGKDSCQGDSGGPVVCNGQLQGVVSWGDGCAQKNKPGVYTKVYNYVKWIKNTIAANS
T1 sequence (P00742 41-179 limits assumed): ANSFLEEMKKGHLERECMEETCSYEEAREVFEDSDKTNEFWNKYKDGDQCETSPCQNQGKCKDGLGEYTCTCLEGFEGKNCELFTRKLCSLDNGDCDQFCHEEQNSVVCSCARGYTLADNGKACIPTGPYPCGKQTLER
T1 sequence (P00742 235-488 limits assumed): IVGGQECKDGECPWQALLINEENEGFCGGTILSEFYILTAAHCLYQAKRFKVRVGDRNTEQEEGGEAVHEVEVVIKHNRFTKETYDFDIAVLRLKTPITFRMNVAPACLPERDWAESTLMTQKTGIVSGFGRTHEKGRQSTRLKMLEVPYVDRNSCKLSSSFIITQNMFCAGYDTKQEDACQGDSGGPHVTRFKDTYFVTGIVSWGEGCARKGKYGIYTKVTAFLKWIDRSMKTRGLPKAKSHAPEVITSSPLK

Which results are given for N=C(N)C1CCC[C@H](NC(=O)CN2CCC[C@H](NS(=O)(=O)c3ccccc3)C2=O)C1O (stereo not given in full)?
IC50 (Coagulation factor X [1]): 1.1 µM; IC50 (Serine protease 1 [2]): 0.77 µM; IC50 (Prothrombin [3]): 0.159 µM

N=C(N)C1CCC[C@H](NC(=O)CN2CCC[C@H](NS(=O)(=O)CCc3ccccc3)C2=O)C1O (stereo not given in full) was tested. Which IC50 (Coagulation factor X [1]) did it give?
The IC50 was 2.5 µM.

And the IC50 (Serine protease 1 [2])?
The IC50 was 2.5 µM.

What about the IC50 (Prothrombin [3]) of the same compound?
The IC50 was 0.42 µM.

For N=C(N)C1CCC[C@H](NC(=O)CN2CCC[C@H](NC(=O)Cc3ccccc3)C2=O)C1O (stereo not given in full), which IC50 (Coagulation factor X [4]) is on record?
Its IC50 is “Not Active”.

What about the IC50 (Prothrombin [3]) of the same compound?
The IC50 was 2.5 µM.

And the IC50 (Trypsin II)?
Its IC50 is greater than 2.5 µM.

With N=C(N)C1CCC[C@H](NC(=O)CN2CCC[C@H](NS(=O)(=O)Cc3ccccc3)C2=O)C1O (stereo not given in full) as the compound, how does the IC50 (Coagulation factor X [1]) read?
The IC50 was 2.5 µM.

What about the Ki (Prothrombin [5]) of the same compound?
The Ki was 0.00101 µM.

What about the IC50 (Serine protease 1 [2]) of the same compound?
The IC50 was 0.791 µM.

And the IC50 (Prothrombin [3])?
The IC50 was 0.0062 µM.

Which results are given for CCCC(CCC)C(=O)N[C@@H](CC(=O)OC)C(=O)N1CCC[C@@H]1C(=O)N[C@H]1CCCC(C(=N)N)C1O (stereo not given in full)?
IC50 (Serine protease 1 [2]): 0.00136 µM; IC50 (Prothrombin [3]): 0.0011 µM

For CCCCS(=O)(=O)N[C@H]1CCCN(CC(=O)N[C@H]2CCCC(C(=N)N)C2O)C1=O (stereo not given in full), which IC50 (Coagulation factor X [1]) is on record?
The IC50 was 2.5 µM.

What about the IC50 (Prothrombin [3]) of the same compound?
The IC50 was 0.709 µM.

And the IC50 (Trypsin II)?
Its IC50 is 2.5 µM.

How did the IC50 (Coagulation factor X [1]) turn out when N=C(N)C1CCC[C@H](NC(=O)CN2CCC[C@H](NS(=O)(=O)c3cccc4ccccc34)C2=O)[C@@H]1O (stereo not given in full) was run?
Its IC50 is 2.5 µM.

And the IC50 (Prothrombin [3])?
Its IC50 is 0.111 µM.

What about the IC50 (Trypsin II) of the same compound?
Its IC50 is 1.02 µM.

For N=C(N)C1CCC[C@H](NC(=O)CN2CCCC[C@H](NS(=O)(=O)Cc3ccccc3)C2=O)C1O (stereo not given in full), which IC50 (Coagulation factor X [1]) is on record?
Its IC50 is 0.0206 µM.

And the Ki (Prothrombin [5])?
Its Ki is 0.00054 µM.

And the IC50 (Serine protease 1 [2])?
The IC50 was 0.0745 µM.

And the IC50 (Prothrombin [3])?
Its IC50 is 0.00071 µM.

Which IC50 (Coagulation factor X [1]) does the source give for COC(=O)c1ccccc1CS(=O)(=O)N[C@H]1CCCCN(CC(=O)N[C@H]2CCCC(C(=N)N)C2O)C1=O (stereo not given in full) here?
Its IC50 is 0.471 µM.

What about the Ki (Prothrombin [5]) of the same compound?
Its Ki is 0.00085 µM.

What about the IC50 (Serine protease 1 [2]) of the same compound?
The IC50 was 0.137 µM.

What about the IC50 (Prothrombin [3]) of the same compound?
The IC50 was 0.00112 µM.

With N=C(N)C1CCC[C@H](NC(=O)CN2CCC[C@H](NS(=O)(=O)NC3CCCCC3)C2=O)C1O (stereo not given in full) as the compound, how does the IC50 (Coagulation factor X [1]) read?
The IC50 was 1.95 µM.

What about the IC50 (Serine protease 1 [2]) of the same compound?
Its IC50 is 0.147 µM.

What about the IC50 (Prothrombin [3]) of the same compound?
The IC50 was 0.235 µM.

What does the source list for CC(C)(C)OC(=O)N[C@H]1CCCN(CC(=O)N[C@H]2CCCC(C(=N)N)C2O)C1=O (stereo not given in full)?
IC50 (Coagulation factor X [1]): 2.5 µM; IC50 (Serine protease 1 [2]): 16.8 µM

How did the IC50 (Prothrombin [5]) turn out when N=C(N)C1CCCC(NC(=O)CN2CC[C@H](NS(=O)(=O)Cc3ccccc3)C2=O)C1O (stereo not given in full) was run?
Its IC50 is 0.125 µM.

What about the IC50 (Coagulation factor X [6]) of the same compound?
Its IC50 is 2.5 µM.

And the IC50 (Trypsin II)?
Its IC50 is 0.538 µM.

What does the source list for CN[C@H](Cc1ccccc1)C(=O)N1CCC[C@@H]1C(=O)N[C@H]1CCCC(C(=N)N)C1O (stereo not given in full)?
IC50 (Coagulation factor X [1]): > 2.5 µM; IC50 (Serine protease 1 [2]): 0.00152 µM; IC50 (Prothrombin [3]): 0.0007 µM

How did the IC50 (Prothrombin [7]) turn out when N=C(N)C1CCC[C@H](NC(=O)CN2CCC[C@H](NC(=O)NS(=O)(=O)c3ccccc3)C2=O)C1O (stereo not given in full) was run?
The IC50 was “Not Active”.

And the IC50 (Coagulation factor X [4])?
Its IC50 is “Not Active”.

What about the IC50 (Serine protease 1 [8]) of the same compound?
Its IC50 is “Not Active”.

What does the source list for C[C@H](C(=O)N[C@H]1CCCC(C(=N)N)C1O)N1CCCC[C@H](NS(=O)(=O)Cc2ccccc2)C1=O (stereo not given in full)?
IC50 (Serine protease 1 [2]): > 2.5 µM; IC50 (Coagulation factor X [4]): Not Active; IC50 (Prothrombin [3]): > 2.5 µM

Which IC50 (Coagulation factor X [1]) does the source give for CC(C(=O)N[C@H]1CCCC(C(=N)N)C1O)N1CCC[C@H](NS(=O)(=O)Cc2ccccc2)C1=O (stereo not given in full) here?
Its IC50 is 2.5 µM.

What about the IC50 (Prothrombin [3]) of the same compound?
Its IC50 is 0.286 µM.

What about the IC50 (Trypsin II) of the same compound?
The IC50 was 0.293 µM.

How did the IC50 (Coagulation factor X [1]) turn out when N=C(N)C1CCC[C@H](NC(=O)CN2CCCC[C@H](NS(=O)(=O)c3ccccc3)C2=O)C1O (stereo not given in full) was run?
Its IC50 is 0.479 µM.

And the IC50 (Serine protease 1 [2])?
Its IC50 is 0.0166 µM.

What about the IC50 (Prothrombin [3]) of the same compound?
The IC50 was 0.0142 µM.

Which results are given for N=C(N)C1CCC[C@H](NC(=O)CN2CCC[C@@H](NS(=O)(=O)Cc3ccccc3)C2=O)C1O (stereo not given in full)?
IC50 (Coagulation factor X [1]): 2.5 µM; IC50 (Serine protease 1 [2]): 0.467 µM; IC50 (Prothrombin [3]): 0.157 µM
